We go through two compounds from article PMC12549899 (Nature Communications, 2025).

The term inhibition denotes the change of the read-out against control, counted positive when it falls.

Where “and” joins values, the source holds several entries; their conditions need not be identical. Equal values may be shown once.

The assay deals with T1, DrOTOP1 A274W (Danio rerio, UniProt Q7ZWK8, A274W).
T1 construct: A previously generated codon-optimized full-length DrOTOP1[8]; (UniProt: Q7ZWK8) construct; expressed in transfected cells; host or cells: HEK-293 (CRL-1573, ATCC)
T1 sequence (Q7ZWK8 1-586 A274W): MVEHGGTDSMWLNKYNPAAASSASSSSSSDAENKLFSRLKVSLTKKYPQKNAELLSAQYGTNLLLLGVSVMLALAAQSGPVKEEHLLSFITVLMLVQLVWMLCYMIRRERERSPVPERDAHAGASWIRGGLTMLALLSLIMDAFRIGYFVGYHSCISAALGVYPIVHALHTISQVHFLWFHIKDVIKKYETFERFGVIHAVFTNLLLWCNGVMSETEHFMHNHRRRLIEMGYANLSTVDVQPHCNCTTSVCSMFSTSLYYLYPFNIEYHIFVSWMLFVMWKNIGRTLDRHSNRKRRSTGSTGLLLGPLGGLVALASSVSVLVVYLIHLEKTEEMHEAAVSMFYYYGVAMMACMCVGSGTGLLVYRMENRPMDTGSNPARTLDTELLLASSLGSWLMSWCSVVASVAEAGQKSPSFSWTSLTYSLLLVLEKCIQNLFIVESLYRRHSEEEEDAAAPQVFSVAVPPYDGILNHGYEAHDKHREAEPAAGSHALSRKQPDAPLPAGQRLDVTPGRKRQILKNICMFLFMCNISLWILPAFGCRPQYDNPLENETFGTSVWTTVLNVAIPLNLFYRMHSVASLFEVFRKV
Kind of assay: Whole-cell patch-clamp, inhibition of acid-evoked currents, DrOTOP1 A274W. In kind it is cell-based, zebrafish (Danio rerio). The text has this:
We next tested mutations of the central site (L205W, A274W, F277A, E384A L385W, A388W). V201W and S389W, two additional central site mutations, were excluded from the study due to complete loss of channel activity. Mutation of E384 to alanine is expected to disrupt potential hydrogen bonding with C2.2. Of note, E384 is one of the few charged residues in the central pocket and could form a salt bridge with K281, that could also be affected by the mutation. Additionally, in our DrOTOP1_C2.2 structure, we observed that F277 underwent a substantial rearrangement, likely to avoid steric clash and accommodate C2.2 binding. Thus, we introduced the F277A mutation to test if removing this steric clash would enhance C2.2 inhibition.
HEK-293 cells (CRL-1573, ATCC) were cultured in DMEM (Thermofisher 11995073) containing 10% fetal bovine serum (Life Technology 16000044) and Penicillin-Streptomycin (100 I.U./mL) and (100 µg/mL), respectively. Cells were transfected with WT DrOTOP1 or mutant DrOTOP1 channels in 35 mm petri dishes, with ~ 500 ng DNA and 2 μL TransIT-LT1 transfection reagent (Mirus Bio Corporation, Cat # MIR2300) following the manufacturer’s protocol. All constructs were subcloned into a pcDNA3.1 vector that adds an N-terminal fusion tag consisting of an octahistidine tag followed by eGFP, a Gly-Thr-Gly-Thr linker and a 3C protease cleavage site ([…]) followed by WT DrOTOP1, WT mOTOP1, WT hOTOP1, or mutated DrOTOP1. Point mutations were generated via In-Fusion Cloning (Takara) using single-stranded DNA primers generated through IDT and sequence confirmed by Sanger sequencing (GeneWiz).
Whole-cell patch-clamp recording was performed as previously described[6],[22],[25]. Recordings were made with an Axopatch 200B amplifier, digitized with a Digidata 1322a 16-bit data acquisition system, acquired with pClamp 8.2 and analyzed with Clampfit 10 (Molecular Devices). Recordings were sampled at 5 kHz and filtered at 1 kHz. Patch Pipettes with resistance of […] were fabricated from borosilicate glass, and only recordings with a giga-Ohm seal were used in analysis. Membrane potential was held at −80 mV for the duration of recordings. At the beginning of recordings and between, cells were washed with Tyrode’s solution (see below). Once a giga-Ohm seal was reached, cells were lifted and placed in front of microcapillary tubes controlled by a Fast-Step perfusion system (Warner Instruments) so that extracellular solutions could be rapidly exchanged during each experiment.
Standard Tyrode’s solution consisted of 145 mM NaCl, 5 mM KCl, MgCl2, 2 mM CaCl2, 20 mM D-Glucose, and 10 mM HEPES (for pH 7.4). All other extracellular patch-clamp solutions contained 160 mM NMDG-Cl, 2 mM CaCl2, and the following buffers: 10 mM HEPES (for pH 7.4), 10 mM MES (for pH 6.5-5.5), 10 mM CHES for pH 10, and 10 mM HomoPIPES for (pH 5.0). pH adjusted with HCl. When adding compounds to extracellular solutions, the concentration of DMSO in solution was never higher than 0.3%. […]
All data are presented as mean ± SEM unless otherwise noted, and each data point represents an independent replicant. Inhibition of compounds was quantified as ((I2peak-I1)/(I2peak))*100, where I1 is the current immediately before wash-off and I2peak is the maximum recovered current (Supplementary Fig. 2). Hill coefficients were determined by the following equation: Y = Bmax*X^h/(Kd^h + X^h). […]
Background: The patch-clamp technique gives a direct electrical read-out from membranes.

As for `C=C(C)COc1ccccc1NC(=O)c1nc[nH]c1C` [C2.2], at 10 µM the inhibition (10 µM, single cells or mean) was 74.6%. Moreover, the Inhibition of currents by setting is: (10 µM, single cells or mean, mean) 72.36%; (10 µM, single cells or mean, single cells) 71.3399% and 74.8032% and 68.9769% and 72.0779%.
Take `O=C(/C(=N\O)c1ccccc1)c1ccccc1` [C11, benzil monoxime]: under “100 µM, single cells”, the Inhibition of currents was 70.9091% and 73.0647% and 75.9259% and 71.7822%; at 100 µM the inhibition was 76.2%.
